The source of these data is patent US20240252693A1, “FOLATE RECEPTOR-TARGETED RADIOTHERAPEUTIC AGENTS AND THEIR USE” (Novartis AG, priority 2021, published 2024).

*1 amine or outer side, *2 acyl side, *3 side chain or, on linkers, in order; H or OH if unused. Where a SMILES comes first, the peptide text is derived from it. [ ]: non-standard residue; d: D form. The star is where a group is joined. NH(1-deoxy-D-glucityl) = OC[C@@H](O)[C@@H](O)[C@H](O)[C@@H](O)CN*; DOTA = O=C(O)CN1CCN(CC(=O)O)CCN(CC(=O)*)CCN(CC(=O)O)CC1; Pteroyl = Nc1nc2ncc(CNc3ccc(C(=O)*)cc3)nc2c(=O)[nH]1; γGlu = O=C(O)[C@H](CCC(=O)[*:2])N[*:1]; βAsp = O=C(O)[C@H](CC(=O)[*:2])N[*:1]; Dap = NC[C@H](N)C(=O)O

One series relates to FR-positive M109 tumor. The series is described as follows: In vivo biodistribution in mice bearing M109 tumors. The note with it: 111In chelate, 100 nmol/kg. The source says:
Four- to eight-week-old female nu/nu mice or NSG mice (Harlan Sprague-Dawley, Inc.) were maintained on a standard 12-h light-dark cycle and fed ad libitum with Folate deficient purified rodent diet (TestDiet #AIN-93G) for the duration of the experiment. FR-positive M109 or FR-negative HT29 tumor cells were inoculated in the subcutis dorsal medial area of mice. The biodistribution studies were typically performed when tumors were approximately 400-800 mm^3 in volume. Mice were divided into groups of three, and freshly prepared test articles and competitors were injected through the lateral tail vein in a volume of 100 μL/10 g of PBS. Four h to six days post radioactive-agent dose administration, mice were euthanized and organs (blood, heart, lungs, liver, spleen, and kidneys, intestine, stomach, muscle, brain and tumor) were collected, weighed and placed inside counting vials. Each tissue sample was counted for the activities of radioelement using a gamma-counter. Samples of the injectate were used as decay correction standards. Final bar graphs are expressed as % injected dose per gram of tissue or tumor to kidney ratio, or % tumor to (kidneys+liver+spleen) ratio.
Consider `Nc1nc(O)c2nc(CNc3ccc(C(=O)N[C@@H](CCC(=O)NCCNC(=O)CCC(C(=O)O)N4CCN(CC(=O)O)CCN(CC(=O)O)CCN(CC(=O)O)CC4)C(=O)O)cc3)cnc2n1` (stereo partly shown) [Compound 28], for which the T/Kid is on record as 0.098 +/− 0.003, the T/Liv is 1.2 +/− 0.1, the T/spl was 2.1 +/− 0.3 and the “T^2/kid” value is 0.03 +/− 0.001.

Turning to `Nc1nc2ncc(CNc3ccc(C(=O)N[C@@H](CCC(=O)N[C@@H](CCC(=O)NC[C@H](O)[C@@H](O)[C@H](O)[C@H](O)CO)C(=O)N[C@@H](CCC(=O)NC[C@H](O)[C@@H](O)[C@H](O)[C@H](O)CO)C(=O)N[C@@H](CCC(=O)NC[C@H](O)[C@@H](O)[C@H](O)[C@H](O)CO)C(=O)N[C@@H](CNC(=O)CN4CCN(CC(=O)O)CCN(CC(=O)O)CCN(CC(=O)O)CC4)C(=O)O)C(=O)O)cc3)nc2c(=O)[nH]1` [Compound 13] ({Pteroyl-γGlu}-E(NH(1-deoxy-D-glucityl))E(NH(1-deoxy-D-glucityl))E(NH(1-deoxy-D-glucityl))[Dap](DOTA)-OH), the T/Kid was 0.22 +/− 0.06, the T/Liv is 6.4 +/− 1.5, the T/spl is 31.9 +/− 7.6 and the “T^2/kid” value was 1.7 +/− 1.1.

`Nc1nc2ncc(CNc3ccc(C(=O)N[C@@H](CC(=O)N[C@@H](CCC(=O)NC[C@H](O)[C@@H](O)[C@H](O)[C@H](O)CO)C(=O)N[C@@H](CCC(=O)NC[C@H](O)[C@@H](O)[C@H](O)[C@H](O)CO)C(=O)N[C@@H](CCC(=O)NC[C@H](O)[C@@H](O)[C@H](O)[C@H](O)CO)C(=O)N[C@@H](CNC(=O)CN4CCN(CC(=O)O)CCN(CC(=O)O)CCN(CC(=O)O)CC4)C(=O)O)C(=O)O)cc3)nc2c(=O)[nH]1` [Compound 11] ({Pteroyl-βAsp}-E(NH(1-deoxy-D-glucityl))E(NH(1-deoxy-D-glucityl))E(NH(1-deoxy-D-glucityl))[Dap](DOTA)-OH): the T/Kid was 0.19 +/− 0.01, the T/Liv is reported as 5.7 +/− 1.5, the T/spl is reported as 28.0 +/− 31^ and the “T^2/kid” value is 1.0 +/− 0.14.

The series is the same for the next values; noted with them: 177Lu chelate, 100 nmol/kg.
Regarding `Nc1nc2ncc(CNc3ccc(C(=O)N[C@@H](CNC(=O)C[C@H](NC(=O)CN4CCN(CC(=O)O)CCN(CC(=O)O)CCN(CC(=O)O)CC4)C(=O)O)C(=O)O)cc3)nc2c(=O)[nH]1` [Compound 20], the T/Kid is 0.21 +/− 0.01, the T/Liv is 4.6 +/− 2.1, the T/spl is given as 16.4 +/− 1.9 and the “T^2/kid” value is 1.5 +/− 0.3.

Staying with this series, now noted: 177Lu chelate, 200 nmol/kg.
In the case of `Nc1nc2ncc(CNc3ccc(C(=O)N[C@@H](CNC(=O)CNC(=O)CN4CCN(CC(=O)O)CCN(CC(=O)O)CCN(CC(=O)O)CC4)C(=O)O)cc3)nc2c(=O)[nH]1` [Compound 68, Pte-Dap(Gly-DOTA)-OH], the T/Kid is recorded as 0.29 +/− 0.08, the T/Liv was 10.1 +/− 3.2, the T/spl was 55.6 +/− 17.1 and the “T^2/kid” value was 1.37 +/− 0.73.

As to `CSCC[C@H](NC(=O)CN1CCN(CC(=O)O)CCN(CC(=O)O)CCN(CC(=O)O)CC1)C(=O)N[C@H](C(=O)N[C@@H](CCCCNC(=O)C[C@H](NC(=O)c1ccc(NCc2cnc3nc(N)[nH]c(=O)c3n2)cc1)C(=O)O)C(=O)O)C(C)C` [Compound 54, Pte-Asp(DOTA-Met-Val-ε-Lys-OH)—OH], the T/Kid is given as 0.23 +/− 0.03, the T/Liv is 9.0 +/− 0.9, the T/spl was 56.4 +/− 6.2 and the “T^2/kid” value was 0.76 +/− 0.12.

The same series, now with this note: 177Lu chelate, 300 nmol/kg.
For `Nc1nc2ncc(CNc3ccc(C(=O)N[C@@H](CCCCNC(=O)COc4ccc(C[C@H](NC(=O)CN5CCN(CC(=O)O)CCN(CC(=O)O)CCN(CC(=O)O)CC5)C(=O)O)cc4)C(=O)O)cc3)nc2c(=O)[nH]1` [Compound 38, Pte-Lys(DOTA-Tyr(O-carbonylmethyl)-OH)—OH], the T/Kid is 0.46 +/− 0.03, the T/Liv is listed as 10.5 +/− 2.9, the T/spl is 69.9 +/− 7.9 and the “T^2/kid” value is listed as 1.28 +/− 0.11.

Turning to `Nc1nc2ncc(CNc3ccc(C(=O)N[C@@H](Cc4ccc(OCC(=O)NCCNC(=O)CN5CCN(CC(=O)O)CCN(CC(=O)O)CCN(CC(=O)O)CC5)cc4)C(=O)O)cc3)nc2c(=O)[nH]1` [Compound 61, Pte-Tyr(OCH2CO-EDA-DOTA)-OH], the T/Kid was 0.27 +/− 0.03, the T/Liv was 8.6 +/− 3.9, the T/spl is reported as 40.3 +/− 18.7 and the “T^2/kid” value was 1.05 +/− 0.28.

`Nc1nc2ncc(CNc3ccc(C(=O)N[C@@H](CCCCNC(=O)C[C@H](NC(=O)[C@H](Cc4ccc5ccccc5c4)NC(=O)[C@H](Cc4ccc5ccccc5c4)NC(=O)CN4CCN(CC(=O)O)CCN(CC(=O)O)CCN(CC(=O)O)CC4)C(=O)O)C(=O)O)cc3)nc2c(=O)[nH]1` [Compound 42, Pte-Lys(β-Asp-2-Nal-2-Nal-DOTA)-OH]: the T/Kid is given as 0.49 +/− 0.16, the T/Liv is given as 17.3 +/− 4.9, the T/spl is 84.4 +/− 10.4 and the “T^2/kid” value was 1.64 +/− 0.62.

For `Nc1nc2ncc(CNc3ccc(C(=O)N[C@@H](Cc4ccc(OCCNC(=O)CN5CCN(CC(=O)O)CCN(CC(=O)O)CCN(CC(=O)O)CC5)cc4)C(=O)O)cc3)nc2c(=O)[nH]1` [Compound 64, Pte-Tyr(OCH2CH2—NH-DOTA)-OH], the T/Kid is listed as 0.38 +/− 0.07, the T/Liv was 14.6 +/− 2.0, the T/spl is on record as 85.5 +/− 7.7 and the “T^2/kid” value is 1.48 +/− 0.51.

Consider `Nc1nc2ncc(CNc3ccc(C(=O)N[C@@H](CCCCNC(=O)COc4ccc(C[C@H](NC(=O)COc5ccc(C[C@H](NC(=O)CN6CCN(CC(=O)O)CCN(CC(=O)O)CCN(CC(=O)O)CC6)C(=O)O)cc5)C(=O)O)cc4)C(=O)O)cc3)nc2c(=O)[nH]1` [Compound 39, Pte-Lys(DOTA-(Tyr(O-carbonylmethyl)-OH)2)—OH], for which the T/Kid is recorded as 0.57 +/− 0.22, the T/Liv is 17.1 +/− 6.4, the T/spl is reported as 83.8 +/− 29.7 and the “T^2/kid” value is 1.68 +/− 0.59.

As for `CSCC[C@H](NC(=S)Nc1ccc(CC2CN(CC(=O)O)CCN(CC(=O)O)CCN(CC(=O)O)CCN2CC(=O)O)cc1)C(=O)N[C@H](C(=O)N[C@@H](CCCCN1C(=O)CC(SC[C@@H](NC(=O)[C@H](CC(=O)O)NC(=O)[C@H](CC(=O)O)NC(=O)[C@H](CCCNC(=N)N)NC(=O)[C@H](CC(=O)O)NC(=O)CC[C@H](NC(=O)c2ccc(NCc3cnc4nc(N)[nH]c(=O)c4n3)cc2)C(=O)O)C(=O)O)C1=O)C(=O)O)C(C)C` (stereo partly drawn) [Compound 58, DOTA-Bn-NHC(S)NH-Met-Val-Lys(Mal-S-Cys-Asp-Asp-Arg-Asp-Folate)-OH], the T/Kid is listed as 0.59 +/− 0.12, the T/Liv is given as 28.8 +/− 2.9, the T/spl was 83.1 +/− 17.3 and the “T^2/kid” value is on record as 0.59 +/− 0.16.

In the case of `Nc1nc2ncc(CNc3ccc(C(=O)N[C@@H](CCCCNC(=O)C[C@H](NC(=O)[C@H](Cc4ccc(Br)cc4)NC(=O)CNC(=O)CN4CCN(CC(=O)O)CCN(CC(=O)O)CCN(CC(=O)O)CC4)C(=O)O)C(=O)O)cc3)nc2c(=O)[nH]1` [Compound 43, Pte-Lys(β-Asp-4-Br-Phe-Gly-DOTA)-OH], the T/Kid is reported as 0.58 +/− 0.10, the T/Liv was 13.0 +/− 3.7, the T/spl was 70.2 +/− 6.7 and the “T^2/kid” value is on record as 1.57 +/− 0.53.

Another series concerns KB tumor. The series is described as follows: In vivo biodistribution in mice bearing KB tumors. Conditions: 177Lu chelate, 200 nmol/kg.
With `Nc1nc2ncc(CNc3ccc(C(=O)NCCCC[C@H](NC(=O)CN4CCN(CC(=O)O)CCN(CC(=O)O)CCN(CC(=O)O)CC4)C(=O)O)cc3)nc2c(=O)[nH]1` [Compound 46, DOTA-Lys(Pte)-OH], the T/Kid is recorded as 0.19 +/− 0.03, the T/Liv is recorded as 6.3 +/− 1.9, the T/spl is reported as 66.9 +/− 30.8 and the “T^2/kid” value is recorded as 0.84 +/− 0.32.

Take `Nc1nc2ncc(CNc3ccc(C(=O)NCCCC[C@H](NC(=O)CNC(=O)CN4CCN(CC(=O)O)CCN(CC(=O)O)CCN(CC(=O)O)CC4)C(=O)O)cc3)nc2c(=O)[nH]1` [Compound 45, DOTA-Gly-Lys(Pte)-OH]: the T/Kid is given as 0.16 +/− 0.01, the T/Liv is listed as 6.8 +/− 1.1, the T/spl was 50.7 +/− 24.0 and the “T^2/kid” value was 0.64 +/− 0.19.

Take `Nc1nc2ncc(CNc3ccc(C(=O)N[C@@H](CC(=O)NCCCC[C@H](NC(=O)CNC(=O)CN4CCN(CC(=O)O)CCN(CC(=O)O)CCN(CC(=O)O)CC4)C(=O)O)C(=O)O)cc3)nc2c(=O)[nH]1` [Compound 51, Pte-Asp(DOTA-Gly-ε-Lys-OH)—OH]: the T/Kid is listed as 0.32 +/− 0.09, the T/Liv is 11.0 +/− 2.3, the T/spl is recorded as 54.8 +/− 11.3 and the “T^2/kid” value was 1.35 +/− 0.54.

Still in this series, the particulars now being: 225Ac chelate, 30 nmol/kg.
As for `Nc1nc2ncc(CNc3ccc(C(=O)N[C@@H](CCCCNC(=O)[C@H](Cc4ccc5ccccc5c4)NC(=O)[C@H]4CC[C@H](CNC(=O)CCC(C(=O)O)N5CCN(CC(=O)O)CCN(CC(=O)O)CCN(CC(=O)O)CC5)CC4)C(=O)O)cc3)nc2c(=O)[nH]1` (stereo partly shown) [Compound 26], the T/Kid is given as 0.08 +/− 0.02, the T/Liv is 3.3 +/− 1.1 and the T/spl is 20.4 +/− 5.6.

As to `Nc1nc2ncc(CNc3ccc(C(=O)N[C@@H](CCC(=O)NC[C@H](N)C(=O)N[C@@H](CC(=O)O)C(=O)N[C@@H](CSC4CC(=O)N(CCNC(=O)CN5CCN(CC(=O)O)CCN(CC(=O)O)CCN(CC(=O)O)CC5)C4=O)C(=O)O)C(=O)O)cc3)nc2c(=O)[nH]1` (stereo partly shown) [Compound 25], the T/Kid is on record as 0.07 +/− 0.03, the T/Liv is given as 3.3 +/− 1.8 and the T/spl is 15.8 +/− 5.9.
